Values of other authors as cited in patent publication US5212175A, “Benzothiophenyl benzothiophenylalkyl-N-terminal amino hydroxy β-amino acid derivatives” (G. D. Searle & Co., priority 1991, dated 1993).
Square brackets hold non-standard residues; d marks the D form. Peptide text beside a SMILES is read from it. * marks the point of attachment. Sta = CC(C)C[C@H](N)[C@@H](O)CC(=O)O; Isovaleryl = CC(C)CC(=O)*

Experiments:
renin = settings: Umezawa et al, J. Antibiot. 1970
hog renin = settings: after the injection of hog renin into nephrectomized rats; Gross et al, Science 1971
cathepsin D = settings: Umezawa et al, J. Antibiot. 1970
pepsin = settings: Umezawa et al, J. Antibiot. 1970
[1] = stated in words as a disadvantage

**Q.** Which inhibitor of renin (renin) does the source give for CC(C)CC(=O)N[C@H](C(=O)N[C@H](C(=O)N[C@@H](CC(C)C)[C@@H](O)CC(=O)N[C@@H](C)C(=O)N[C@@H](CC(C)C)[C@@H](O)CC(=O)O)C(C)C)C(C)C [pepstatin] (Isovaleryl-VV[Sta]A[Sta]-OH) here?
**A.** inhibitor

**Q.** What about the “reduce blood pressure in vivo” value (hog renin) of the same molecule?
**A.** reduce blood pressure

**Q.** And the “inhibitor of cathepsin D” value (cathepsin D)?
**A.** inhibitor

**Q.** What about the inhibitor of pepsin (pepsin) of the same molecule?
**A.** inhibitor

**Q.** What about the solubility [1] of the same molecule?
**A.** low solubility
